From PubChem BioAssay AID588440 (The Scripps Research Institute Molecular Screening Center, 2011)
Active and inactive are the calls of the source.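 The calls were made as follows: active = half-maximal cytotoxic concentration at or below 10 µM; inactive = the rest.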

These compounds were tested on HEK293 LDH release cytotoxicity, resorufin fluorescence (assay: membrane integrity loss in HEK cells – cell-based, fluorescence, cytotoxicity control for IDE activator project, dose response (AID 588440)).
In the case of `C#CCOCCOCCOCCNc1nc(N2CCN(C(=O)CCCCCCCCCCNC(=O)Cn3cc(C[C@@H](C)O)nn3)CC2)nc(N2CCN(C(=O)CCCCCCCCCCNC(=O)[C@H](CCCN=C(N)N)n3cc(C[C@@H](C)CC)nn3)CC2)n1`, the CC50 is reported as 7.28 µM. For `C#CCOCCOCCOCCNc1nc(N2CCN(C(=O)CCCCCCCCCCNC(=O)Cn3cc(CCCCCN)nn3)CC2)nc(N2CCN(C(=O)CCCCCCCCCCNC(=O)Cn3cc(C[C@@H](C)O)nn3)CC2)n1`, the CC50 was 16.4 µM (inactive). With `C#CCOCCOCCOCCNc1nc(N2CCN(C(=O)CCCCCCCCCCNC(=O)[C@@H](CCSC)n3cc(CCO)nn3)CC2)nc(N2CCN(C(=O)CCCCCCCCCCNC(=O)[C@H](CO)n3cc(CCCCCN)nn3)CC2)n1` the CC50 was 12.6 µM (inactive). With `C#CCOCCOCCOCCNc1nc(N2CCN(C(=O)CCCCCCCCCCNC(=O)[C@H]([C@@H](C)CC)n3cc(CCCCN=C(N)N)nn3)CC2)nc(N2CCN(C(=O)CCCCCCCCCCNC(=O)[C@@H]([C@H](C)O)n3cc(C)nn3)CC2)n1` the CC50 was 6.37 µM. With `C#CCOCCOCCOCCNc1nc(N2CCN(C(=O)CCCCCCCCCCNC(=O)[C@H](CCCCN)n3cc(CCO)nn3)CC2)nc(N2CCN(C(=O)CCCCCCCCCCNC(=O)[C@H](CCCN=C(N)N)n3cc(C[C@@H](C)CC)nn3)CC2)n1` the CC50 was 5.63 µM. With `C#CCOCCOCCOCCNc1nc(N2CCN(C(=O)CCCCCCCCCCNC(=O)Cn3cc(CCCCCN)nn3)CC2)nc(N2CCN(C(=O)CCCCCCCCCCNC(=O)[C@H](CO)n3cc(CCCSC)nn3)CC2)n1` the CC50 was 17.4 µM (inactive). In the case of `C#CCOCCOCCOCCNc1nc(N2CCN(C(=O)CCCCCCCCCCNC(=O)[C@H](CO)n3cc(CCCSC)nn3)CC2)nc(N2CCN(C(=O)CCCCCCCCCCNC(=O)[C@H](CCCCN)n3cc(CCO)nn3)CC2)n1`, the CC50 is reported as 20.8 µM (inactive). Compound `C#CCOCCOCCOCCNc1nc(N2CCN(C(=O)CCCCCCCCCCNC(=O)Cn3cc(CCCCCN)nn3)CC2)nc(N2CCN(C(=O)CCCCCCCCCCNC(=O)[C@H]([C@@H](C)CC)n3cc(CCCCCN)nn3)CC2)n1` has a CC50 of 5.97 µM. Work on `C#CCOCCOCCOCCNc1nc(N2CCN(C(=O)CCCCCCCCCCNC(=O)[C@H]([C@@H](C)CC)n3cc(CCCCCN)nn3)CC2)nc(N2CCN(C(=O)CCCCCCCCCCNC(=O)[C@H]([C@@H](C)CC)n3cc(CCCCN=C(N)N)nn3)CC2)n1` yielded a CC50 of 2.07 µM.
